In the NIST ThermoML archive (doi:10.1016/j.jct.2014.08.018):
Where “and” joins values, the source holds several entries; their conditions need not be identical. Identical values can stand only once. ± gives the expanded uncertainty stated by the source.

Details: 101.33 kPa, Liquid; for mass density: Vibrating tube method; for viscosity: Capillary tube (Ostwald / Ubbelohde) method

Compound	mass density (288.15 K)	viscosity (288.17 K)	viscosity (298.11 K)	mass density (298.15 K)	viscosity (308.05 K)	mass density (308.15 K)	viscosity (318.06 K)	mass density (318.15 K)	viscosity (328.08 K)	mass density (328.15 K)	other results
CCCCCCCCCCCCCC[P+](CCCCCC)(CCCCCC)CCCCCC.N#C[N-]C#N [tetradecyl(trihexyl)phosphonium dicyanamide]	903.4 ± 0.9 kg/m3	665.15 ± 30 mPa·s	362.9 ± 13 mPa·s	897.6 ± 0.9 kg/m3	210.07 ± 6.4 mPa·s	891.9 ± 0.9 kg/m3	129.77 ± 3.3 mPa·s	886.3 ± 0.9 kg/m3	83.81 ± 1.9 mPa·s	880.7 ± 0.9 kg/m3	viscosity (288.31 K): 664.13 ± 34 mPa·s; viscosity (298.07 K): 362.32 ± 16 mPa·s; viscosity (308.09 K): 210.09 ± 8.3 mPa·s; viscosity (318.01 K): 129.78 ± 4.6 mPa·s; viscosity (328.03 K): 83.95 ± 2.8 mPa·s
CCCCCC[n+]1ccn(C)c1.O=S(=O)([N-]S(=O)(=O)C(F)(F)F)C(F)(F)F	1381.3 ± 1.5 kg/m3			1372.2 ± 1.5 kg/m3	44.87 ± 0.94 mPa·s	1363 ± 1.5 kg/m3		1353.9 ± 1.4 kg/m3	21.92 ± 0.46 mPa·s and 21.92 ± 0.52 mPa·s	1344.9 ± 1.4 kg/m3	viscosity (288.19 K): 115.89 ± 2.8 mPa·s and 115.81 ± 3.1 mPa·s; viscosity (298.12 K): 69.47 ± 1.5 mPa·s and 69.62 ± 1.7 mPa·s; viscosity (308.11 K): 44.86 ± 1.1 mPa·s; viscosity (317.95 K): 30.77 ± 0.74 mPa·s; viscosity (318.07 K): 30.77 ± 0.65 mPa·s
CCCCn1cc[n+](C)c1.N#CN=C=[N-] [1-butyl-3-methylimidazolium dicyanamide]	1066.9 ± 1.1 kg/m3	45.86 ± 0.96 mPa·s	30.15 ± 0.63 mPa·s and 30.15 ± 0.93 mPa·s	1060.5 ± 1.1 kg/m3	20.91 ± 0.44 mPa·s	1054.2 ± 1.1 kg/m3	15.19 ± 0.32 mPa·s	1047.9 ± 1.1 kg/m3	11.55 ± 0.24 mPa·s	1041.7 ± 1.1 kg/m3	viscosity (288.22 K): 45.82 ± 1.4 mPa·s; viscosity (308.12 K): 20.94 ± 0.64 mPa·s; viscosity (318.05 K): 15.21 ± 0.47 mPa·s; viscosity (328.05 K): 11.56 ± 0.36 mPa·s
